One experiment addresses T1, hSIRT3 (Homo sapiens, UniProt Q9NTG7).
T1 construct: proteolytically cleaved by mitochondrial matrix processing peptidase (MPP) between residues Ser101 and Ilel02; expressed in transfected cells; host or cells: HEK293T cells, mitochondrial lysate in TXIP-1 buffer
T1 sequence (Q9NTG7 102-399 limits assumed): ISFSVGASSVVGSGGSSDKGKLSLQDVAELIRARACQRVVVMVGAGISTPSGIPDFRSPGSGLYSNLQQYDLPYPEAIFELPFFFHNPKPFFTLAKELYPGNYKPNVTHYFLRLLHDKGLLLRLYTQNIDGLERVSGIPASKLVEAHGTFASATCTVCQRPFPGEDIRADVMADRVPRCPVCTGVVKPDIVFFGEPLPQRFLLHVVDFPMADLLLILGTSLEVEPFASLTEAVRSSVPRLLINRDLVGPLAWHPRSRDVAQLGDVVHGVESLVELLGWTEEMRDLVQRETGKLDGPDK
Briefly: In vitro deacetylase assay on mitochondrial lysates of hSIRT3-transfected cells. It is filed as biochemical. To be noted: lysates of hSIRT3-transfected HEK293T cells, compared with untransfected lysates.

Experiment [1] deals with NAD-dependent deacetylase activity in human mitochondrial fractions prepared from HEK293T cells. Briefly: In vitro deacetylase assay on mitochondrial lysates, acetylated histone H4 peptide. The following applies: NAD 1 mM, 2 hrs.
Experiment [2] deals with import of hSIRT3 into isolated mammalian mitochondria. Briefly: Import of radiolabeled hSIRT3 into isolated mitochondria. To be noted: antimycin 8 μM, oligomycin 20 μM and valinomycin 1 μM added together to dissipate the transmembrane potential. On the procedure:
Import into isolated mitochondria was carried out as previously reported (22). Proteins were synthesized in the presence of [^35S]-methionine by coupled transcription-translation in reticulocyte lysate (Promega, Madison, Wis.) (23). In vitro translation reactions were centrifuged at 108,000×g, 2° C. for 15 min and adjusted to 250 mM sucrose. Import reactions contained 5% (v/v) reticulocyte lysate in import buffer (3% (w/v) fatty-acid free bovine serum albumin (BSA), 250 mM sucrose, 80 mM KCl, 5 mM MgCl2, 2 mM KH2PO4, 5 mM L-methionine, 10 mM 3-[N-morpholino]propanesulfonic acid-KOH, pH 7.2). In each import reaction, 50 μg of freshly isolated mammalian mitochondria were mixed with radiolabeled proteins and incubated at 30° C. ATP (2 mM) and sodium succinate (10 mM) were added to maintain coupling of isolated mitochondria. Import was stopped by addition of valinomycin (1 μM) and transfer to 0°C.
Where indicated, samples were treated with proteinase K (50 μg/ml) for 10 min on ice. Protease treatment was stopped by addition of 2 mM phenylmethylsulfonyl fluoride (PMSF). Mitochondria were reisolated by centrifugation at 10,000×g for 5 min at 4° C., washed in SEM buffer and recentrifuged as above. Mitochondrial pellets were resuspended in SDS sample buffer containing dithiothreitol (DTT) and heated to 95° C. for 5 min. Samples were subjected to SDS-PAGE. Dried gels were exposed to Biomax MR film (Kodak, Rochester, N.Y.) at −70° C. and analyzed on a Fuji FUJIX BAS 1000 phosphorimager. […]
FIG. 4. […] After reisolation of mitochondria and SDS-PAGE, the amounts of imported proteins were quantified by phosphorimaging. FIG. 4B, Quantitation of imported protein by phosphorimaging. […] Reisolated and washed mitochondria were lysed in SDS sample buffer and analyzed by SDS-PAGE. […] FIG. 4E, Import efficiency of individual hSIRT3 mutants was quantitated in relation to their standards by phosphorimaging. […]

Turning to `CC(/C=C/C(=O)NO)=C\[C@@H](C)C(=O)c1ccc(N(C)C)cc1` [TSA, trichostatin A], the “sensitivity of deacetylase activity of mitochondrial lysates overexpressing hSIRT3” value at hSIRT3 is on record as “same properties as untransfected mitochondrial lysates”. The “effect on NAD-dependent deacetylase activity of mitochondrial lysate” value in experiment [1] (TSA 400 nM) is “no effect”.

With `CC[C@H]1/C=C/C=C/C[C@@H](C)[C@H](O)[C@@](C)(O)C(=O)[C@@H](C)[C@H](O)[C@@H](C)C(=O)[C@@H](C)[C@H](O)[C@@H](C)/C=C/C(=O)O[C@@H]2[C@H](C)[C@H](CC1)O[C@]1(CC[C@H](C)[C@H](C[C@@H](C)O)O1)[C@H]2C` [oligomycin], the “effect on import of hSIRT3 across the mitochondrial membrane” value (shortened to “effect on import”) in experiment [2] is recorded as “inhibited”.

For antimycin, the “effect on import” value in experiment [2] was “inhibited”.

Consider `CC(C)[C@@H]1NC(=O)[C@H](C)OC(=O)[C@@H](C(C)C)NC(=O)[C@@H](C(C)C)OC(=O)[C@H](C(C)C)NC(=O)[C@H](C)OC(=O)[C@@H](C(C)C)NC(=O)[C@@H](C(C)C)OC(=O)[C@H](C(C)C)NC(=O)[C@H](C)OC(=O)[C@@H](C(C)C)NC(=O)[C@@H](C(C)C)OC1=O` [valinomycin], for which the “effect on import” value in experiment [2] is “inhibited”.

In the case of `NC(=O)c1cccnc1` [nicotinamide], in experiment [1] (nicotinamide 5 mM), the “effect on NAD-dependent deacetylase activity of mitochondrial lysate” value is on record as “suppressed”.

Source of the values: patent publication US7273713B2, “Methods of modulating mitochondrial NAD-dependent deacetylase” (The Regents of the University of California, priority 2002, dated 2007).
